Reference: ChEMBL document CHEMBL2069212, “Identification and in vivo and in vitro characterization of long acting and melanocortin 4 receptor (MC4-R) selective α-melanocyte-stimulating hormone (α-MSH) analogues” (J Med Chem, 2012)
Each block holds one molecule with its values, some of them ahead of it. Calls of active or inactive are those of the source. The calls are words filed in the database; no cut-off is given here.

Tests used:
[1] = molecular target: Melanocyte-stimulating hormone receptor (Homo sapiens, UniProt Q01726); assay: Displacement of [125I]-NAD-alpha-MSH from human recombinant MC1 receptor expressed in BHK570 cells after 90 mins in presence of ovalbumin; format: cell-based
[2] = molecular target: Melanocortin receptor 3 (Homo sapiens, UniProt P41968); assay: Displacement of [125I]-NAD-alpha-MSH from human recombinant MC3 receptor expressed in BHK570 cells after 1 hr in presence of ovalbumin; format: cell-based
[3] = molecular target: Melanocortin receptor 5 (Homo sapiens, UniProt P33032); assay: Displacement of [125I]-NAD-alpha-MSH from human recombinant MC3 receptor human MC5 expressed in BHK570 cells after 1 hr in presence of ovalbumin; format: cell-based
[4] = molecular target: T1, Melanocortin receptor 4 (Homo sapiens, UniProt P32245); assay: Displacement of [125I]-NAD-alpha-MSH from MC4 receptor after 2 hrs by gamma counting in presence of ovalbumin
[5] = molecular target: T1, Melanocortin receptor 4; assay: Agonist activity at human recombinant MC4 receptor expressed in BHK570 cells assessed as induction of […] accumulation in presence of 0.1% human serum albumin; format: functional, cell-based
[6] = tested on: Rattus norvegicus; assay: Antiobesity activity in Sprague-Dawley rat assessed as reduction of food intake at 3 mg/kg, sc qd measured up to 7 hrs relative to control; format: functional; design: scale not given: the % may be the effect or the level left; settings: route subcutaneous
[7] = tested on: Rattus norvegicus; assay: Antiobesity activity in Sprague-Dawley rat assessed as reduction of food intake at 3 mg/kg, sc qd measured after 7 to 24 hrs relative to control; format: functional; design: scale not given: the % may be the effect or the level left; settings: route subcutaneous
[8] = tested on: Rattus norvegicus; assay: Antiobesity activity in Sprague-Dawley rat assessed as reduction of food intake at 3 mg/kg, sc qd measured after 24 to 48 hrs relative to control; format: functional; settings: route subcutaneous
[9] = molecular target: Melanocortin receptor 4 (Rattus norvegicus) (UniProt P70596); assay: Agonist activity at rat MC4 receptor; format: functional
Melanocortin receptor 4 (Rattus norvegicus), sequence (P70596 whole entry): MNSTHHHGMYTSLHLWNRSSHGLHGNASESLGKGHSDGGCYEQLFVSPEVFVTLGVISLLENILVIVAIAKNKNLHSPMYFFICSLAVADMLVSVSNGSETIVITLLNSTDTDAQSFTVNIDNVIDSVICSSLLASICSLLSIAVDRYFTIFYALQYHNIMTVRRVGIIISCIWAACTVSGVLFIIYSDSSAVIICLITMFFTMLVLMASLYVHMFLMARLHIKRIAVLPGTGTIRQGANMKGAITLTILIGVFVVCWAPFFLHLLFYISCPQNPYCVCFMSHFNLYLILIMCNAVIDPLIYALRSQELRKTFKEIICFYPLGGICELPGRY

Melanocortin receptor 5, sequence (P33032 whole entry): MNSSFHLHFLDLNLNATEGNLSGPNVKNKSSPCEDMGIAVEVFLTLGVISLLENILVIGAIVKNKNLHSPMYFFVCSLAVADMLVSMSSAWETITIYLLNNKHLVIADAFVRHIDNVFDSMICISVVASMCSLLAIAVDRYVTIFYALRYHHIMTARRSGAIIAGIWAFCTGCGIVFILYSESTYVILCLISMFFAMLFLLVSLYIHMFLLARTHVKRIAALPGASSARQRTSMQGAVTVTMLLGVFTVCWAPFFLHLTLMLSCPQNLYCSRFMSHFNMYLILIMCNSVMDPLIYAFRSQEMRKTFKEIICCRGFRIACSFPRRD
Melanocyte-stimulating hormone receptor, sequence (Q01726 whole entry): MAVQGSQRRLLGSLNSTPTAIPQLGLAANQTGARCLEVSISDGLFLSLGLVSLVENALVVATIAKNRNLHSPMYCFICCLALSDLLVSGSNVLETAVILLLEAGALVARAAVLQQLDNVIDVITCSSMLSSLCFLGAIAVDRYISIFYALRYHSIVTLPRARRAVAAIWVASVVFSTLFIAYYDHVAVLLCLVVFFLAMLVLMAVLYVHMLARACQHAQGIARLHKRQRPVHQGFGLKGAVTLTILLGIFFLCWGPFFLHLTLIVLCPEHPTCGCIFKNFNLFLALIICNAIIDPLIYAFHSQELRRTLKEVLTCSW
Melanocortin receptor 3, sequence (P41968 whole entry): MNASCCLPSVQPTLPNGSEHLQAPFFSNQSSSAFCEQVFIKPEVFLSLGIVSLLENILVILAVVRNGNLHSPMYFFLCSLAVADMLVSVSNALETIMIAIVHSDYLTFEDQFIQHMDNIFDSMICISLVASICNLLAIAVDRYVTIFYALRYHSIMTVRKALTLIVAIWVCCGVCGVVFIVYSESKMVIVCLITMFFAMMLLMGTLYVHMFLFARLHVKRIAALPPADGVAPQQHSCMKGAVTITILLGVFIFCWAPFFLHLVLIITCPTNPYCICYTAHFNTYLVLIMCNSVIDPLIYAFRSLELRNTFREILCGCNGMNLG
T1 sequence (P32245 whole entry): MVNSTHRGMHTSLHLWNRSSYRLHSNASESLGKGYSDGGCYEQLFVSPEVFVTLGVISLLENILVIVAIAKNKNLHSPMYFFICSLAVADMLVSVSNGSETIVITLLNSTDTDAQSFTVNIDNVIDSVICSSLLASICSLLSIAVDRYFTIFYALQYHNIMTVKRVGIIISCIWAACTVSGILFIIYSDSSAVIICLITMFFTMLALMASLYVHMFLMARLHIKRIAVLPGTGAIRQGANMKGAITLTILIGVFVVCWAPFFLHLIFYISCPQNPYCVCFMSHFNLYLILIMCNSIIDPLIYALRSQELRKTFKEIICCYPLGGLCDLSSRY

Structure (SMILES): CCCCCCCCCCCCCCCC(=O)NCC(=O)NCC(=O)NCC(=O)NCC(=O)NCC(=O)N[C@@H](CCCC)C(=O)N[C@H]1CCC(=O)NCCCC[C@@H](C(N)=O)NC(=O)[C@H](Cc2c[nH]c3ccccc23)NC(=O)[C@H](CCCNC(=N)N)NC(=O)[C@@H](Cc2ccccc2)NC(=O)[C@@H]2C[C@@H](O)CN2C1=O
Ki [1]: 130 nM | Ki [2]: 8 nM | Ki [3]: 3 nM | Ki [4]: 0.33 nM | EC50 [5]: 1 nM | Activity [6]: 110% | Activity [7]: 76% | Food intake relative to control [8]: 94%

Structure (SMILES): CCCC[C@H](NC(=O)[C@@H](N)CNC(=O)[C@H](Cc1cnc[nH]1)NC(=O)[C@H](CCC(N)=O)NC(=O)[C@H](CO)NC(=O)CNC(=O)COCCOCCNC(=O)CCCCCCCCCCCCCCCc1nnn[nH]1)C(=O)N[C@H]1CCC(=O)NCCCC[C@@H](C(N)=O)NC(=O)[C@H](Cc2c[nH]c3ccccc23)NC(=O)[C@H](CCCN=C(N)N)NC(=O)[C@@H](Cc2ccccc2)NC(=O)[C@@H]2C[C@@H](O)CN2C1=O
Ki [1]: 700 nM | Ki [2]: 121 nM | Ki [3]: 40 nM | Ki [4]: 0.17 nM | EC50 [5]: 85 nM

Structure (SMILES): CCCC[C@H](NC(=O)[C@H](CCC(=O)O)NC(=O)[C@H](Cc1c[nH]cn1)NC(=O)[C@H](CCC(=O)O)NC(=O)[C@H](CCC(=O)O)NC(=O)CNC(=O)COCCOCCNC(=O)CCCCCCCCCCCCCCCc1nnn[nH]1)C(=O)N[C@H]1CCC(=O)NCCCC[C@@H](C(N)=O)NC(=O)[C@H](Cc2c[nH]c3ccccc23)NC(=O)[C@H](CCCNC(=N)N)NC(=O)[C@@H](Cc2ccccc2)NC(=O)[C@@H]2C[C@@H](O)CN2C1=O
Ki [1]: 8100 nM | Ki [2]: 450 nM | Ki [3]: 110 nM | Ki [4]: 7.8 nM | Activity [6]: 75% | Activity [7]: 79% | Food intake relative to control [8]: 88%

Structure (SMILES): CCCC[C@H](NC(=O)[C@H](CNC(C)C)NC(=O)[C@H](Cc1cnc[nH]1)NC(=O)[C@H](CCC(N)=O)NC(=O)[C@H](CO)NC(=O)CNC(=O)COCCOCCNC(=O)CCCCCCCCCCCCCCCc1nnn[nH]1)C(=O)N[C@H]1CCC(=O)NCCCC[C@@H](C(N)=O)NC(=O)[C@H](Cc2c[nH]c3ccccc23)NC(=O)[C@H](CCCNC(=N)N)NC(=O)[C@@H](Cc2ccccc2)NC(=O)[C@@H]2C[C@@H](O)CN2C1=O
Ki [1]: 270 nM | Ki [2]: 13 nM | Ki [3]: 3.4 nM | Ki [4]: 0.26 nM | EC50 [5]: 15 nM | Activity [6]: 50% | Activity [7]: 40% | Food intake relative to control [8]: 72%

Structure (SMILES): CCCC[C@H](NC(=O)[C@H](CN(C)C)NC(=O)[C@H](Cc1cnc[nH]1)NC(=O)[C@H](CCC(N)=O)NC(=O)[C@H](CO)NC(=O)CNC(=O)COCCOCCNC(=O)CCCCCCCCCCCCCCCc1nnn[nH]1)C(=O)N[C@H]1CCC(=O)NCCCC[C@@H](C(N)=O)NC(=O)[C@H](Cc2c[nH]c3ccccc23)NC(=O)[C@H](CCCNC(=N)N)NC(=O)[C@@H](Cc2ccccc2)NC(=O)[C@@H]2C[C@@H](O)CN2C1=O
Ki [1]: 440 nM | Ki [2]: 11 nM | Ki [3]: 2.9 nM | Ki [4]: 0.13 nM | EC50 [5]: 130 nM | Activity [6]: 62% | Activity [7]: 60% | Food intake relative to control [8]: 82%

Structure (SMILES): CCCC[C@H](NC(=O)[C@H](CCCNC(=N)N)NC(=O)[C@H](Cc1cnc[nH]1)NC(=O)[C@H](CCC(N)=O)NC(=O)[C@H](CO)NC(=O)CNC(=O)COCCOCCNC(=O)CCCCCCCCCCCCCCCc1nnn[nH]1)C(=O)N[C@H]1CCC(=O)NCCCC[C@@H](C(N)=O)NC(=O)[C@H](Cc2c[nH]c3ccccc23)NC(=O)[C@H](CCCNC(=N)N)NC(=O)[C@@H](Cc2ccccc2)NC(=O)[C@@H]2C[C@@H](O)CN2C1=O
Ki [1]: 44 nM | Ki [2]: 27 nM | Ki [3]: 3 nM | Ki [4]: 0.08 nM | EC50 [5]: 4.7 nM | Activity [6]: 46% | Activity [7]: 51% | Food intake relative to control [8]: 83%

Structure (SMILES): CCCC[C@H](NC(=O)[C@H](CCC(=O)O)NC(=O)[C@H](CCC(=O)O)NC(=O)[C@H](CCC(=O)O)NC(=O)[C@H](CCC(=O)O)NC(=O)CNC(=O)COCCOCCNC(=O)CCCCCCCCCCCCCCCc1nnn[nH]1)C(=O)N[C@H]1CCC(=O)NCCCC[C@@H](C(N)=O)NC(=O)[C@H](Cc2c[nH]c3ccccc23)NC(=O)[C@H](CCCNC(=N)N)NC(=O)[C@@H](Cc2ccccc2)NC(=O)[C@@H]2C[C@@H](O)CN2C1=O
Ki [1]: > 10000 nM | Ki [2]: 1600 nM | Ki [3]: 710 nM | Ki [4]: 250 nM

Structure (SMILES): CCCC[C@H](NC(=O)[C@H](CCC(=O)O)NC(=O)[C@H](CCCN=C(N)N)NC(=O)[C@H](CCC(=O)O)NC(=O)[C@H](CCC(=O)O)NC(=O)CNC(=O)COCCOCCNC(=O)CCCCCCCCCCCCCCCc1nnn[nH]1)C(=O)N[C@H]1CCC(=O)NCCCC[C@@H](C(N)=O)NC(=O)[C@H](Cc2c[nH]c3ccccc23)NC(=O)[C@H](CCCN=C(N)N)NC(=O)[C@@H](Cc2ccccc2)NC(=O)[C@@H]2C[C@@H](O)CN2C1=O
Ki [1]: > 10000 nM | Ki [2]: 1100 nM | Ki [3]: 270 nM | Ki [4]: 35 nM | EC50 [5]: 270 nM

Structure (SMILES): CCCC[C@H](NC(=O)[C@H](CN)NC(=O)[C@H](Cc1cnc[nH]1)NC(=O)[C@H](CCC(N)=O)NC(=O)[C@H](CO)NC(=O)CNC(=O)COCCOCCNC(=O)CCCCCCCCCCCCCCCc1nnn[nH]1)C(=O)N[C@H]1CCC(=O)NCCCC[C@@H](C(N)=O)NC(=O)[C@H](Cc2c[nH]c3ccccc23)NC(=O)[C@H](CCCN=C(N)N)NC(=O)[C@@H](Cc2ccccc2)NC(=O)[C@@H]2C[C@@H](O)CN2C1=O
Ki [1]: 400 nM | Ki [2]: 42 nM | Ki [3]: 10 nM | Ki [4]: 0.17 nM | EC50 [5]: 62 nM

Structure (SMILES): CCCC[C@H](NC(=O)[C@H](CO)NC(=O)[C@H](Cc1cnc[nH]1)NC(=O)[C@H](CCC(N)=O)NC(=O)[C@H](CO)NC(=O)CNC(=O)COCCOCCNC(=O)CCCCCCCCCCCCCCCc1nnn[nH]1)C(=O)N[C@H]1CCC(=O)NCCCC[C@@H](C(N)=O)NC(=O)[C@H](Cc2c[nH]c3ccccc23)NC(=O)[C@H](CCCNC(=N)N)NC(=O)[C@@H](Cc2ccccc2)NC(=O)[C@@H]2C[C@@H](O)CN2C1=O
Ki [1]: 1200 nM | Ki [2]: 67 nM | Ki [3]: 15 nM | Ki [4]: 0.2 nM | EC50 [5]: 170 nM | Activity [6]: 79% | Activity [7]: 56% | Food intake relative to control [8]: 92%

Continued, in another order:

Ki [1]: 8 nM | Ki [2]: 2.5 nM | Ki [3]: 1.6 nM | Ki [4]: 0.12 nM | EC50 [5]: 0.17 nM
Structure (SMILES): CCCCCCCCCCCCCCCC(=O)NCC(=O)N[C@@H](CO)C(=O)N[C@@H](CCC(N)=O)C(=O)N[C@@H](Cc1cnc[nH]1)C(=O)N[C@@H](CO)C(=O)N[C@@H](CCCC)C(=O)N[C@H]1CCC(=O)NCCCC[C@@H](C(N)=O)NC(=O)[C@H](Cc2c[nH]c3ccccc23)NC(=O)[C@H](CCCNC(=N)N)NC(=O)[C@@H](Cc2ccccc2)NC(=O)[C@@H]2C[C@@H](O)CN2C1=O
Activity [6]: 63% | Activity [7]: 58% | Food intake relative to control [8]: 81%

Activity [9]: Active
Structure (SMILES): CCCC[C@H](NC(=O)[C@@H](N)CNC(=O)[C@H](Cc1cnc[nH]1)NC(=O)[C@H](CCC(N)=O)NC(=O)[C@H](CO)NC(=O)CNC(=O)COCCOCCNC(=O)CCCCCCCCCCCCCCCc1nnn[nH]1)C(=O)N[C@H]1CCC(=O)NCCCC[C@@H](C(N)=O)NC(=O)[C@H](Cc2c[nH]c3ccccc23)NC(=O)[C@H](CCCNC(=N)N)NC(=O)[C@@H](Cc2ccccc2)NC(=O)[C@@H]2C[C@@H](O)CN2C1=O
Activity [6]: 82% | Activity [7]: 54% | Food intake relative to control [8]: 81%

Ki [1]: 200 nM | Ki [2]: 45 nM | Ki [3]: 5.1 nM | Ki [4]: 4.6 nM | EC50 [5]: 2 nM
Structure (SMILES): CCCC[C@H](NC(=O)[C@H](CO)NC(=O)[C@H](Cc1cnc[nH]1)NC(=O)[C@H](CCC(N)=O)NC(=O)[C@H](CO)NC(=O)CNC(C)=O)C(=O)N[C@H]1CCC(=O)NCCCC[C@@H](C(N)=O)NC(=O)[C@H](Cc2c[nH]c3ccccc23)NC(=O)[C@H](CCCNC(=N)N)NC(=O)[C@@H](Cc2ccccc2)NC(=O)[C@@H]2C[C@@H](O)CN2C1=O
Activity [6]: 55% | Activity [7]: 99% | Food intake relative to control [8]: 103%

Ki [1]: 73 nM | Ki [2]: 22 nM | Ki [3]: 4.3 nM | Ki [4]: 1 nM | EC50 [5]: 0.47 nM
Structure (SMILES): CCCC[C@H](NC(=O)[C@H](CO)NC(=O)[C@H](CCCCN=C(N)N)NC(=O)[C@H](CCC(N)=O)NC(=O)[C@H](CO)NC(=O)CNC(C)=O)C(=O)N[C@H]1CCC(=O)NCCCC[C@@H](C(N)=O)NC(=O)[C@H](Cc2c[nH]c3ccccc23)NC(=O)[C@H](CCCN=C(N)N)NC(=O)[C@@H](Cc2ccccc2)NC(=O)[C@@H]2C[C@@H](O)CN2C1=O

Ki [1]: 3.2 nM | Ki [2]: 2 nM | Ki [3]: 0.47 nM | Ki [4]: 0.37 nM | EC50 [5]: 0.04 nM
Structure (SMILES): CCCCCCCCCCCCCCCC(=O)NCC(=O)N[C@@H](CO)C(=O)N[C@@H](CCC(N)=O)C(=O)N[C@@H](CCCCNC(=N)N)C(=O)N[C@@H](CO)C(=O)N[C@@H](CCCC)C(=O)N[C@H]1CCC(=O)NCCCC[C@@H](C(N)=O)NC(=O)[C@H](Cc2c[nH]c3ccccc23)NC(=O)[C@H](CCCNC(=N)N)NC(=O)[C@@H](Cc2ccccc2)NC(=O)[C@@H]2C[C@@H](O)CN2C1=O
Activity [6]: 71% | Activity [7]: 57% | Food intake relative to control [8]: 82%
